Measurements reported in patent US11026937B2, “Heteroaryl inhibitors of PAD4” (PADLOCK THERAPEUTICS, INC., priority 2016, dated 2021).
Like-named read-outs stand apart in the source and are kept apart here.

Biological target: hPAD4 enzyme (Homo sapiens (Human), UniProt Q9UM07)
Assay: PAD4 assay (hPAD4-RFMS, RapidFire mass spectrometry)
Assay type: biochemical
Conditions: 100 nM hPAD4, 50 μM substrate peptide, 1 mM CaCl2, 65 mins at 37° C.
Protocol: Compounds of the present invention were assayed as inhibitors of PAD4 using the assay protocol described below.
Compounds were solubilized in 100% DMSO to achieve 100 mM final compound concentration. Compound stock solutions were stored at RT. A series of dilutions were prepared in DMSO and mixed 8 times with 20 μL mixing volume. Final assay conditions were as follows:
Assay buffer (as aforementioned): 100 mM Tris-HCl (pH 7.6), 2 mM DTT, 1 mM CaCl2
Total incubation time: 65 mins at 37° C.
Stop solution: 40 μl 5% TCA in ACN
0.25 μL of compound solution was added to 10 μL of 200 nM PAD4 in assay buffer (100 mM Tris-HCl pH 7.6, 2 mM DTT). After 5 mins, 10 μL of 100 μM of substrate in buffer (100 mM Tris-HCl pH 7.6, 2 mM DTT, 2 mM CaCl2) was added and the reaction incubated for 60 mins at 37° C. The enzymatic reaction was quenched by addition of 40 μl of 5% TCA in ACN (1.7% TCA final concentration) stop solution.
The compound numbers correspond to the compound numbers in Tables 1 and 2. […] The term pIC50=−log(IC50). […] “NA” stands for “not assayed.”

[1] = read-out: hPAD4-RFMS: IC50 (μM) (Average)
[2] = read-out: hPAD4-RFMS: pIC50 (Average) (converted)

hPAD4 enzyme, sequence (Q9UM07 whole entry): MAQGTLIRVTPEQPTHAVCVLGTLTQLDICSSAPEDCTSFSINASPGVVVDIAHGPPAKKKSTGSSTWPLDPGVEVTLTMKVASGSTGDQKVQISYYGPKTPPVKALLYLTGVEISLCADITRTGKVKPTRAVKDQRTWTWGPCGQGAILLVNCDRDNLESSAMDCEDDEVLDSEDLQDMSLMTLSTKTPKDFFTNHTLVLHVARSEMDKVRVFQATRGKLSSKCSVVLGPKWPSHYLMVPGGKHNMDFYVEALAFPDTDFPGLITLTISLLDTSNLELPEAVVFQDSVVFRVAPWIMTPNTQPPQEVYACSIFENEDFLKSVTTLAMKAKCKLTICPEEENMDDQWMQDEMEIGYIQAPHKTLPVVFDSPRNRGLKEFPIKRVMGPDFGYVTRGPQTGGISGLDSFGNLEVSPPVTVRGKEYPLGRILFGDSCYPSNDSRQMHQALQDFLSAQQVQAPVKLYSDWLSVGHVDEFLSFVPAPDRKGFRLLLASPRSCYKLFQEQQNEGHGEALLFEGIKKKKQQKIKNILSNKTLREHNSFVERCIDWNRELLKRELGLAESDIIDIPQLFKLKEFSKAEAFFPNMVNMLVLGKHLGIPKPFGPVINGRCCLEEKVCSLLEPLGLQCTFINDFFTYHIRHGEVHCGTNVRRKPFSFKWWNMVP

IC50 [1] | IC50 [2] | hPAD4-RFMS: pIC50 (Average) | SMILES
3 to 20 µM | < 10 µM |  | COc1ccc(/C=C/C(=O)c2c(-c3ccccc3)c3ccccc3[nH]c2=O)cc1 [Compound I-139]
> 100 µM | 100 to 100000 µM |  | O=C(/C=C/c1cncnc1)c1c(-c2ccccc2)c2cnccc2[nH]c1=O [Compound I-90, 4-phenyl-3-[(2E)-3-(pyrimidin-5-yl)prop-2-enoyl]-1,2-dihydro-1,6-naphthyridin-2-one]
> 100 µM | 100 to 100000 µM |  | O=C(/C=C/c1ccccn1)c1c(-c2ccc(F)cc2)c2ccccc2[nH]c1=O [Compound I-108]
> 100 µM | 100 to 100000 µM |  | O=C(/C=C/c1cccnc1)c1c(-c2ccccn2)c2ccccc2[nH]c1=O [Compound I-124]
> 100 µM | 100 to 100000 µM |  | C#CCOCCOCCOc1ccc(/C=C/C(=O)c2c(-c3ccccc3)c3ccccc3[nH]c2=O)cc1 [Compound I-109, 4-phenyl-3-[(2E)-3-(4-{2-[2-(prop-2-yn-1-yloxy)ethoxy]ethoxy}phenyl)prop-2-enoyl]-1,2-dihydroquinolin-2-one]
> 100 µM | 100 to 100000 µM |  | O=C(/C=C/c1cncnc1)c1c(-c2cccnc2)c2ccccc2[nH]c1=O [Compound I-95]
> 100 µM | 10 to 100 µM |  | Cn1c(/C=C/C(=O)c2c(-c3ccccc3)c3ccccc3n(C)c2=O)nc2ccccc21 [Compound I-72]
20 to 100 µM |  | F (pIC50 of 4-5) | O=C(/C=C/c1nc2ccccc2[nH]1)c1c(-c2ccccc2)c2ccccc2[nH]c1=O [Compound I-103]
> 100 µM | 100 to 100000 µM |  | COc1ccc(/C=C/C(=O)c2ccc[nH]c2=O)cc1 [Compound I-151]
